Data from ChEMBL document CHEMBL4311976, “Design, synthesis and biological evaluation of novel 7H-pyrrolo[2,3-d]pyrimidine derivatives as potential FAK inhibitors and anticancer agents” (Eur J Med Chem, 2019).
pIC50: −log10 of the molar value.

Columns and labels:
[1] = target: Proto-oncogene tyrosine-protein kinase receptor Ret (Homo sapiens) (UniProt P07949); assay: Inhibition of recombinant GST-tagged human RET (658 to 1114 residues) expressed in baculovirus expression system at 0.5 uM using tyr 02 as substrate in presence of ATP at Km concentration after 1 hr by Z'-LYTE assay relative to control
Proto-oncogene tyrosine-protein kinase receptor Ret (Homo sapiens), sequence (P07949 whole entry, the tested form may be a part): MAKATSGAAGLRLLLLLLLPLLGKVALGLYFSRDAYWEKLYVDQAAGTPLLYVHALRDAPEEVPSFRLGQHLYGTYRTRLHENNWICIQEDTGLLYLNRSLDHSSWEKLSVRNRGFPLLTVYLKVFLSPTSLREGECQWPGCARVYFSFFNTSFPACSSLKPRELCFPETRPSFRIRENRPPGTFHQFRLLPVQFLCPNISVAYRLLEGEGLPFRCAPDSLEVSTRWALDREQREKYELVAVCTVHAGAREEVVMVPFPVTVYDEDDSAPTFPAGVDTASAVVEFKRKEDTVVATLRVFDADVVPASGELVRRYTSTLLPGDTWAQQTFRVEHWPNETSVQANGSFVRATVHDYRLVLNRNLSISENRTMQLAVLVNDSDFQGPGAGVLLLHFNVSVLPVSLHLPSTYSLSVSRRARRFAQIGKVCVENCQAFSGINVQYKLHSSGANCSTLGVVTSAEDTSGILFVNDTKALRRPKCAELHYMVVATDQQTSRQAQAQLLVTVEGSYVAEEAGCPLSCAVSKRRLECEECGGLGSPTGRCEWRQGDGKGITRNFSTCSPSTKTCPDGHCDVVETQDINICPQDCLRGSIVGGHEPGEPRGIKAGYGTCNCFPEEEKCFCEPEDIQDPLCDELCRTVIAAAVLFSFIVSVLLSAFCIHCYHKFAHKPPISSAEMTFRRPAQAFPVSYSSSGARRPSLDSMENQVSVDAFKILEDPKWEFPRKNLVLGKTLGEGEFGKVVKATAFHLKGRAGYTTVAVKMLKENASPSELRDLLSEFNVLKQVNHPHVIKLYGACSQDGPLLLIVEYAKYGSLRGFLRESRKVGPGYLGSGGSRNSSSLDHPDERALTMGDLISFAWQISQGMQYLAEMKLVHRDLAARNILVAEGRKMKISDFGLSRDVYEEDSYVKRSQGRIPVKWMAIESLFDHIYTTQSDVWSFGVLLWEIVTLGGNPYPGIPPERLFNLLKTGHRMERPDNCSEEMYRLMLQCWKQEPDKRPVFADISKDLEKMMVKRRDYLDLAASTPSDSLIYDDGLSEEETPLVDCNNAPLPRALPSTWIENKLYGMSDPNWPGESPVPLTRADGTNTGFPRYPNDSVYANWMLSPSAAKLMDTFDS

[2] = organism: Homo sapiens; assay: Inhibition of recombinant full length His-tagged human PKA catalytic domain expressed in Escherichia coli at 0.5 uM using Ser/Thr 01 as substrate in presence of ATP at Km concentration after 1 hr by Z'-LYTE assay relative to control
[3] = target: Serine/threonine-protein kinase PLK1 (Homo sapiens) (UniProt P53350); assay: Inhibition of recombinant full length His-tagged human PLK1 expressed in baculovirus expression system at 0.5 uM using Ser/Thr 16 as substrate in presence of ATP at Km concentration after 1 hr by Z'-LYTE assay relative to control
Serine/threonine-protein kinase PLK1 (Homo sapiens), sequence (P53350 whole entry): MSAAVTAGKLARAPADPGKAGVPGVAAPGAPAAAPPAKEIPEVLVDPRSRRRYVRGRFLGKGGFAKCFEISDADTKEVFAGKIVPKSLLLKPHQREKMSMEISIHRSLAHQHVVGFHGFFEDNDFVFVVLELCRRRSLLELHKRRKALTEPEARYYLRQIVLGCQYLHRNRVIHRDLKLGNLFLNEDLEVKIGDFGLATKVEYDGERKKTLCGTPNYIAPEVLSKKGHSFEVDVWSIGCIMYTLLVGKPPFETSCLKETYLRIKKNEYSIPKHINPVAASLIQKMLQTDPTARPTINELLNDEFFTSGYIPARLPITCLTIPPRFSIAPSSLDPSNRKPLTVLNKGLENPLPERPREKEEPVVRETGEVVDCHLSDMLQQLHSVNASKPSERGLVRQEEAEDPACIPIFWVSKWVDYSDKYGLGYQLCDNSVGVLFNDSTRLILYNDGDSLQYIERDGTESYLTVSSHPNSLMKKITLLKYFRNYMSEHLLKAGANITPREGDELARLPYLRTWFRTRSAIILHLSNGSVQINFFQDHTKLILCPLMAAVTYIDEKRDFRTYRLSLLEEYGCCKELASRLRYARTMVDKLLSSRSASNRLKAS

[4] = target: Serine/threonine-protein kinase pim-2 (Homo sapiens) (UniProt Q9P1W9); assay: Inhibition of recombinant full length GST-tagged human PIM2 expressed in baculovirus expression system at 0.5 uM using Ser/Thr 07 as substrate in presence of ATP at Km concentration after 1 hr by Z'-LYTE assay relative to control
Serine/threonine-protein kinase pim-2 (Homo sapiens), sequence (Q9P1W9 whole entry, looked up): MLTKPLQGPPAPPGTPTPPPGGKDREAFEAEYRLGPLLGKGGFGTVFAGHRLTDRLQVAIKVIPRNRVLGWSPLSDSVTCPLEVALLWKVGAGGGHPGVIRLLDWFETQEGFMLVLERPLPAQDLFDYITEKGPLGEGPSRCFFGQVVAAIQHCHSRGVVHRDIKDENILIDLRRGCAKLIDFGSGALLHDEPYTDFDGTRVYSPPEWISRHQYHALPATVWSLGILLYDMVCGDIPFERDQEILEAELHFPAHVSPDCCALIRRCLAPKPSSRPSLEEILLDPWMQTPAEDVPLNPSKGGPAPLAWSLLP

[5] = target: Mitogen-activated protein kinase 1 (Homo sapiens) (UniProt P28482); assay: Inhibition of recombinant full length GST-tagged human ERK2 expressed in Escherichia coli at 0.5 uM using Ser/Thr 03 as substrate in presence of ATP at Km concentration after 1 hr by Z'-LYTE assay relative to control
Mitogen-activated protein kinase 1 (Homo sapiens), sequence (P28482 whole entry): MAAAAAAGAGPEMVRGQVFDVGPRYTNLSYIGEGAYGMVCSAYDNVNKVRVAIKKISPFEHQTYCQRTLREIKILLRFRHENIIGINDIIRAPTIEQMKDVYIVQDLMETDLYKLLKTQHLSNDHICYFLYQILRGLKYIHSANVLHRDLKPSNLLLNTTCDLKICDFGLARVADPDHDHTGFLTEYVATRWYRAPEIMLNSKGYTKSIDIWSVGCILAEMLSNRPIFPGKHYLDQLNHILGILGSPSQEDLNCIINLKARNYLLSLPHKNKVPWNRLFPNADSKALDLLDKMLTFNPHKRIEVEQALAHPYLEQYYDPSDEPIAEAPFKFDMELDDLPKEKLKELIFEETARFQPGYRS

[6] = target: Tyrosine-protein kinase Lck (Homo sapiens) (UniProt P06239); assay: Inhibition of recombinant full length His-tagged human LCK expressed in baculovirus expression system at 0.5 uM using tyr 02 as substrate in presence of ATP at Km concentration after 1 hr by Z'-LYTE assay relative to control
Tyrosine-protein kinase Lck (Homo sapiens), sequence (P06239 2-509 limits assumed): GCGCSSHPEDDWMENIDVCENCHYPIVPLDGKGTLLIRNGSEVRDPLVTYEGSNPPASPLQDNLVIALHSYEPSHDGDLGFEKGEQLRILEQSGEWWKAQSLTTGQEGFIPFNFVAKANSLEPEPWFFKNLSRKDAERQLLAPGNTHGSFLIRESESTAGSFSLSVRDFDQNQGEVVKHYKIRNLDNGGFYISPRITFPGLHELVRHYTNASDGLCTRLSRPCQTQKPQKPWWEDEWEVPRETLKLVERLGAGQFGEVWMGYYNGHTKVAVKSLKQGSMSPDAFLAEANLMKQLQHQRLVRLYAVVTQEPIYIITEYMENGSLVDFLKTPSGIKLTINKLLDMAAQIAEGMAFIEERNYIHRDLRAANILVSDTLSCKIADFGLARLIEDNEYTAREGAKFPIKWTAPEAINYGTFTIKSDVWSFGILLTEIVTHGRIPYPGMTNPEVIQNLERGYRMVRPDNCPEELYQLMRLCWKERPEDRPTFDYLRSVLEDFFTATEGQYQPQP

[7] = target: Vascular endothelial growth factor receptor 2 (Homo sapiens) (UniProt P35968); assay: Inhibition of recombinant His-tagged human KDR cytoplasmic domain (789 to 1356 residues) expressed in baculovirus expression system at 0.5 uM using tyr 01 as substrate in presence of ATP at Km concentration after 1 hr by Z'-LYTE assay relative to control
Vascular endothelial growth factor receptor 2 (Homo sapiens), sequence (P35968 whole entry, the tested form may be a part): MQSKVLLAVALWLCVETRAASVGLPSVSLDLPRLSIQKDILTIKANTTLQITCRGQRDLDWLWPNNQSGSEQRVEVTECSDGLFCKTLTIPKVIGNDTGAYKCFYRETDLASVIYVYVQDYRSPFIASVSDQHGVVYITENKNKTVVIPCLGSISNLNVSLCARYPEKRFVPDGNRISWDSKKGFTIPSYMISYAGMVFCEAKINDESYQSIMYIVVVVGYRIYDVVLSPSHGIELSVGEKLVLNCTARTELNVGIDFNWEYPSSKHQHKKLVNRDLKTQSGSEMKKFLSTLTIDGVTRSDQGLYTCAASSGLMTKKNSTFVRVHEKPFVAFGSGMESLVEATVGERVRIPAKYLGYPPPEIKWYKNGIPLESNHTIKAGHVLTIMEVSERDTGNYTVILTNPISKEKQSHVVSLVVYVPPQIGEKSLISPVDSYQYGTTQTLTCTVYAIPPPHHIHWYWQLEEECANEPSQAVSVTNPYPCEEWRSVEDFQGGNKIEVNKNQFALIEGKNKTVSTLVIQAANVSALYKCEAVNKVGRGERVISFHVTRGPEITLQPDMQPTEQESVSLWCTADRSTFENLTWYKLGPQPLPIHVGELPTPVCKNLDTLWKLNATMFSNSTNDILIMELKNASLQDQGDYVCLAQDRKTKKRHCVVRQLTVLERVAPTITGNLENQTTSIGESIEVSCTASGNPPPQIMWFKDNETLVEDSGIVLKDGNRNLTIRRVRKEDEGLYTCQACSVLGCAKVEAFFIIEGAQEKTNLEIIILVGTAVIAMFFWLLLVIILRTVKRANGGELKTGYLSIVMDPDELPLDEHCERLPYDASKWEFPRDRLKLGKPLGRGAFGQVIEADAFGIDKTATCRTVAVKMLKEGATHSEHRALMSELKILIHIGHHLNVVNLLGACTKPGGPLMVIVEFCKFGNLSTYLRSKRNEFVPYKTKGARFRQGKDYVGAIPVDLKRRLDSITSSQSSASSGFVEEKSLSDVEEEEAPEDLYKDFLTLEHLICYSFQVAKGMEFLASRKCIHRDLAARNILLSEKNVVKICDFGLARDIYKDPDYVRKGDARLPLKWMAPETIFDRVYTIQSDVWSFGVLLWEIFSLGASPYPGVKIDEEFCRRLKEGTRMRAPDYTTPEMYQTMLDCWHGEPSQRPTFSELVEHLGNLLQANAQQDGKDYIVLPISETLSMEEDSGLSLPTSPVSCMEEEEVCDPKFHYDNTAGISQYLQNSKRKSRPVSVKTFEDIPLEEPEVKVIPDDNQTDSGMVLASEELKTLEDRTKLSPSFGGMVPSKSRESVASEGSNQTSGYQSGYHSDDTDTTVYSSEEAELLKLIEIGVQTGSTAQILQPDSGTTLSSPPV

[8] = target: Serine/threonine-protein kinase mTOR (Homo sapiens) (UniProt P42345); assay: Inhibition of recombinant GST-tagged human mTOR catalytic domain (1360 to 2549 residues) expressed in baculovirus expression system at 0.5 uM using Ser/Thr 11 as substrate in presence of ATP at Km concentration after 1 hr by Z'-LYTE assay relative to control
[9] = target: Fibroblast growth factor receptor 1 (Homo sapiens) (UniProt P11362); assay: Inhibition of recombinant His-tagged human FGFR1 (308 to 731 resides) expressed in baculovirus expression system at 0.5 uM using tyr 04 as substrate in presence of ATP at Km concentration after 1 hr by Z'-LYTE assay relative to control
Fibroblast growth factor receptor 1 (Homo sapiens), sequence (P11362 22-822 limits assumed): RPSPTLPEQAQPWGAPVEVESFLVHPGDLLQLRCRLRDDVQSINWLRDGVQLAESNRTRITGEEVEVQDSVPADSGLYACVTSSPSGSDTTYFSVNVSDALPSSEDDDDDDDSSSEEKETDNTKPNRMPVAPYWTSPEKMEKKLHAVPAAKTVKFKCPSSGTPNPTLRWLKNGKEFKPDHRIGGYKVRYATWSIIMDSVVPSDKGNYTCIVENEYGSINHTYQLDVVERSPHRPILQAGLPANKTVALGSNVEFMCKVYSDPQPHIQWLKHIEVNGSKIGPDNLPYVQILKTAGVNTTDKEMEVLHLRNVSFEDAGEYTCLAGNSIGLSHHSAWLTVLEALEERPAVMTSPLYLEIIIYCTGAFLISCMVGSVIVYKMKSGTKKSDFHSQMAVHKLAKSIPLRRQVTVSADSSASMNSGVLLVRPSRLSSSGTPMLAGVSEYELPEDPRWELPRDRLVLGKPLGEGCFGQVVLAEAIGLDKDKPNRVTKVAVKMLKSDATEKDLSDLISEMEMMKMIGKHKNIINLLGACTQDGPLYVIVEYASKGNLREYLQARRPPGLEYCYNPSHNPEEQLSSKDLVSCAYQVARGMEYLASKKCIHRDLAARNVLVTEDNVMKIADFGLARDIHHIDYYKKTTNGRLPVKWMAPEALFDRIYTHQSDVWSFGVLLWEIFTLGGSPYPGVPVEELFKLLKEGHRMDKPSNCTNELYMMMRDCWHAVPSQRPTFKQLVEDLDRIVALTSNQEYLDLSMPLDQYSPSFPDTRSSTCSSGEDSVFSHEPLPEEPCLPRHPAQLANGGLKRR

[10] = target: CDK2/Cyclin A2 (Homo sapiens) (UniProt P24941+P20248); assay: Inhibition of recombinant full-legth His-tagged human CDK2/CyclinA expressed in baculovirus expression system at 0.5 uM using Ser/Thr 12 as substrate in presence of ATP at Km concentration after 1 hr by Z'-LYTE assay relative to control
[11] = target: Serine/threonine-protein kinase B-raf (Homo sapiens) (UniProt P15056); assay: Inhibition of full length GST-tagged human BRAF expressed in baculovirus expression system at 0.5 uM using Ser/Thr 03 as substrate in presence of 100 uM ATP after 1 hr by Z'-LYTE assay relative to control
[12] = target: CYP2C19 (Homo sapiens, UniProt P33261); assay: Inhibition of CYP2C19 in human pooled liver microsomes at 10 uM using S-mephenytoin as substrate preincubated for 10 mins followed by NADPH addition and measured after 15 mins by LC/MS/MS analysis relative to control; assay type: ADME; conditions: probe S-mephenytoin
[13] = target: CYP2C9 (Homo sapiens, UniProt P11712); assay: Inhibition of CYP2C9 in human pooled liver microsomes at 10 uM using diclofenac as substrate preincubated for 10 mins followed by NADPH addition and measured after 15 mins by LC/MS/MS analysis relative to control; assay type: ADME; conditions: probe diclofenac
[14] = Intrinsic clearance in rat liver at 1 uM measured up to 1 hr in presence of NADPH by LC-MS/MS analysis; assay type: ADME, tissue-based
[15] = Intrinsic clearance in mouse liver at 1 uM measured up to 1 hr in presence of NADPH by LC-MS/MS analysis; assay type: ADME, tissue-based
[16] = Metabolic stability in rat liver microsomes assessed as compound remaining at 1 uM measured up to 1 hr in absence of NADPH by LC-MS/MS analysis; assay type: ADME, Microsome; conditions: read-out: Stability
[17] = Metabolic stability in human liver microsomes assessed as compound remaining at 1 uM measured up to 1 hr in presence of NADPH by LC-MS/MS analysis; assay type: ADME, Microsome; conditions: read-out: Stability
[18] = Metabolic stability in rat liver microsomes assessed as compound remaining at 1 uM measured up to 1 hr in presence of NADPH by LC-MS/MS analysis; assay type: ADME, Microsome; conditions: read-out: Stability
[19] = Metabolic stability in mouse liver microsomes assessed as compound remaining at 1 uM measured up to 1 hr in presence of NADPH by LC-MS/MS analysis; assay type: ADME, Microsome; conditions: read-out: Stability
[20] = Half life in mouse liver microsomes at 1 uM measured up to 1 hr by LC-MS/MS analysis; assay type: ADME, Microsome
[21] = system: A549; assay: Induction of apoptosis in human A549 cells assessed as early apoptotic cells at 9 uM after 72 hrs by Annexin V-FITC/propidium iodide staining-based flow cytometric analysis (reference value: 2.40%); assay type: functional
[22] = system: A549; assay: Induction of apoptosis in human A549 cells assessed as viable cells at 9 uM after 72 hrs by Annexin V-FITC/propidium iodide staining-based flow cytometric analysis (reference value: 94.66%); assay type: functional; conditions: A549, 72 h, read-out: Activity
[23] = system: A549; assay: Induction of apoptosis in human A549 cells assessed as late apoptotic cells at 3 uM after 72 hrs by Annexin V-FITC/propidium iodide staining-based flow cytometric analysis (reference value: 1.24%); assay type: functional
[24] = system: A549; assay: Induction of apoptosis in human A549 cells assessed as viable cells at 3 uM after 72 hrs by Annexin V-FITC/propidium iodide staining-based flow cytometric analysis (reference value: 94.66%); assay type: functional; conditions: A549, 72 h, read-out: Activity
[25] = system: A549; assay: Induction of apoptosis in human A549 cells assessed as viable cells at 1 uM after 72 hrs by Annexin V-FITC/propidium iodide staining-based flow cytometric analysis (reference value: 94.66%); assay type: functional; conditions: A549, 72 h, read-out: Activity
[26] = system: HK-2; assay: cells; conditions: Homo sapiens, HK-2, 72 h
Description: Cytotoxicity against human HK2 cells assessed as reduction in cell viability after 72 hrs by MTT assay

[27] = system: MDA-MB-231; assay: cells; conditions: Homo sapiens, MDA-MB-231, 72 h
Description: Antiproliferative activity against human MDA-MB-231 cells assessed as reduction in cell viability after 72 hrs by MTT assay

inhibition [1]: 10%
inhibition [2]: 2%
inhibition [3]: 43%
inhibition [4]: -3%
inhibition [5]: 9%
inhibition [6]: 14%
inhibition [7]: 1%
inhibition [8]: 0%
inhibition [9]: 6%
inhibition [10]: 1%
inhibition [11]: 3%
inhibition at 0.25 h, 10 µM [12]: 4.9%
inhibition at 0.25 h, 10 µM [13]: 11.5%
CLH [14]: < 17.3 mL/min/kg
CLH [15]: 39.9 mL/min/kg
remaining at 1 h, 1 µM [16]: 76.3%
remaining at 1 h, 1 µM [17]: 67.9%
remaining at 1 h, 1 µM [18]: 80.7%
remaining at 1 h, 1 µM [19]: 75.4%
half-life at 1 µM [20]: 2.29 h
pIC50 [26]: < 4.60
pIC50 [27]: 4.76
SMILES: COc1cc(C(=O)NC2CCNCC2)ccc1Nc1nc(Nc2ccccc2P(C)(C)=O)c2cc[nH]c2n1
Activity [21]: 30.12%
viability at 9 µM [22]: 29.1%
Activity [23]: 25.09%
viability at 3 µM [24]: 52.9%
viability at 1 µM [25]: 70.7%
